Source: patent US20240410877A1, “SYSTEMS AND METHODS FOR MIXED MULTIPLE CELL LINE SCREENING USING ENDOGENOUS SINGLE NUCLEOTIDE POLYMORPHISM (SNP)-BASED CELL LINE IDENTIFICATION” (University of Kentucky Research Foundation, priority 2023, published 2024)

What was measured:
Type in all cases: cell-based, human
[1] = system: SNU475; assay: Cell proliferation assay of single cell line; settings: SNU475, 1 μM, 30 h
Description: (§1) The liver cancer cell lines, Huh7, C3A, PLC/PRF/5, SNU449, SNU475 and SK-Hep1, were purchased from the American Type Culture Collection (ATCC). The cells were cultured in DMEM (ATCC®30-2002) containing 10% (v/v) Fetal Bovine Serum (FBS) (Sigma F0926) and grown in an incubator at 37° C. with 5% CO2. The halogenated diarylacetylene, 4-((2,6-difluorophenyl) ethynyl)-N,N-dimethylaniline (DEDA), was synthesized and characterized as previously described.^18,19
(§2) For proliferation assays of single cell line, cells were seeded in 12-well plates (2×10^5 cells per well) and incubated overnight. The following day, DEDA (1 μM solution in DMSO) was added to each well with DMSO alone as a control. Each experiment was performed in quadruplicate. After 30 h, cells were analyzed under a reverse microscope. Cell viability and number were analyzed using the Vi-Cell XR Cell Viability Analyzer (Beckman Coulter).

[2] = system: PLC/PRF/5; assay: Cell proliferation assay of single cell line; settings: PLC/PRF/5, 1 μM, 30 h
Description: as §1, §2

[3] = system: SNU449; assay: Cell proliferation assay of single cell line; settings: SNU449, 1 μM, 30 h
Description: as §1, §2

[4] = system: C3A; assay: Cell proliferation assay of single cell line; settings: 1 μM, 30 h
Description: as §1, §2

[5] = system: SK-Hep1; assay: Cell proliferation assay of single cell line; settings: SK-Hep1, 1 μM, 30 h
Description: as §1, §2

[6] = system: Huh7; assay: Cell proliferation assay of single cell line; settings: Huh7, 1 μM, 30 h
Description: as §1, §2

[7] = system: c-Myc; assay: Western blot of c-Myc expression in liver cancer cells; settings: C3A cells, 1 μM DEDA vs DMSO
Description: Cells were grown in six-well plates and lysed in 0.5 mL/well lysis buffer (50 mM HEPES, 100 mM NaCl, 2 mM EDTA, 1% glycerol, 50 mM NaF, 1 mM Na3VO4, 1% Triton X-100, with protease inhibitors). Cell lysates were separated by a 10% SDS-PAGE gel and transferred to an Immobilon PVDF membrane. The protein levels of c-Myc and GAPDH (loading control) were analyzed using antibodies that recognize c-Myc (Epitomics, #1472-1) and GAPDH (GeneTex, #627408).

SMILES: CN(C)c1ccc(C#Cc2c(F)cccc2F)cc1 [DEDA, 4-((2,6-difluorophenyl)ethynyl)-N,N-dimethylaniline]
- sensitivity in cell proliferation assay [1]: resistant
- sensitivity in cell proliferation assay [2]: resistant
- sensitivity in cell proliferation assay [3]: resistant
- sensitivity in cell proliferation assay [4]: DEDA-sensitive
- sensitivity in cell proliferation assay [5]: resistant
- sensitivity in cell proliferation assay [6]: DEDA-sensitive
- c-Myc expression [7]: inhibited c-Myc expression
